From PMC12040169 (PLOS Biology, 2025)

assay: in vitro; details: human, hela cells, % viability

| Structure (SMILES) | viability at 28.5 h, 10 µM |
| --- | --- |
| Cc1c(NC(=O)CSc2nnc(-c3cccc([N+](=O)[O-])c3)n2C)c(=O)n(-c2ccccc2)n1C [CBK266757] | 95.4% |
| Cc1ccc(-c2nnc(N3CCN(S(=O)(=O)c4ccc(Cl)cc4)CC3)c3ccccc23)cc1 [CBK266759] | 96.1% |
| O=C(O)c1cc(NC(=O)c2ccc3c(c2)C(=O)N(Cc2cccnc2)C3=O)cc(C(=O)O)c1 [CBK266761] | 108% |
| N#Cc1c(NC(=O)c2cccc(S(=O)(=O)Nc3ccc(C(=O)O)cc3)c2)sc2c1CCCC2 [CBK266762] | 106% |
| N#C/C(=C\c1ccc(OCC(=O)c2ccccc2)cc1)c1nc(-c2cccs2)cs1 [CBK266765] | 95.3% |
| CN(C)S(=O)(=O)c1cc(C(=O)Nc2ccc(O)cc2)c(Cl)cc1Cl [CBK266767] | 95.4% |
| N#C/C(=C\c1ccc(OCC(=O)c2ccc(F)cc2)cc1)c1nc(-c2cc3ccccc3oc2=O)cs1 [CBK266769] | 90.6% |
| O=C(Nc1cc([N+](=O)[O-])ccc1O)c1ccc2c(c1)C(=O)N(Cc1cccnc1)C2=O [CBK266770] | 92.7% |
| CC1CCN(S(=O)(=O)c2cccc(C(=O)NNC(=O)c3cccc([N+](=O)[O-])c3)c2)CC1 [CBK266774] | 98% |
| O=C(Nc1ccc(Br)cc1C(=O)O)c1ccc2c(c1)C(=O)N(Cc1cccnc1)C2=O [CBK266776] | 96.7% |
| O=C(CSCc1ccc(Cl)cc1Cl)Nc1ccc(Oc2ccc3c(c2)C(=O)NC3=O)cc1 [CBK266779] | 92.2% |
| O=C(OCc1ccc(S(=O)(=O)c2ccccc2)cc1)c1cc(O)nc2ccccc12 [CBK266782] | 93.1% |
| Cc1cc(Cl)c(S(=O)(=O)Nc2ccon2)cc1OCC(=O)NC1CCCCC1 [CBK266785] | 93.5% |
| O=C(CSc1ccccc1)Nc1cccc(NC(=O)c2cccs2)c1 [CBK266788] | 96.7% |
| Cc1ccc(-c2nnc(-c3cccc(NC(=O)CSCc4ccc(Cl)cc4)c3)o2)cc1 [CBK266789] | 92.3% |
| Cc1ccc(NC(=O)COc2ccccc2)c(NC(=O)c2ccccc2I)c1 [CBK266793] | 98.2% |
| CCC(C(=O)Nc1cc(OC)c(OC)cc1C(=O)O)c1ccccc1 (stereo not drawn) [CBK266794] | 106% |
| Cc1nnc2sc(-c3ccc(NC(=S)NC(=O)c4cc5ccccc5o4)cc3)nn12 [CBK266795] | 100% |
| CC(Oc1ccc(Br)cc1)C(=O)O/N=C(\N)c1ccncc1 (stereo not drawn) [CBK266797] | 93% |
| COC(=O)c1cn(C(=O)CCCN2C(=O)c3ccccc3C2=O)c2ccccc12 [CBK266799] | 91.7% |
| COc1cc(NC(=O)c2ccc3c(c2)C(=O)N(Cc2cccnc2)C3=O)c(C(=O)O)cc1OC [CBK266802] | 88.1% |

| Structure (SMILES) | viability at 28.5 h, 10 µM |
| --- | --- |
| CC1(C)CC(NS(=O)(=O)c2ccc(Br)cc2)CC(C)(C)N1 [CBK266805] | 97.7% |
| CC1(C)CC(NC(=O)COc2ccc([N+](=O)[O-])cc2)CC(C)(C)N1 [CBK266806] | 98% |
| CC(CNS(=O)(=O)c1cc(Cl)ccc1Cl)CN(C)C (stereo not drawn) [CBK266808] | 108% |
| Cc1ccc(NC(=O)COc2ccccc2)c(NC(=O)c2ccco2)c1 [CBK266809] | 95.6% |
| O=C(Nc1ccccc1)c1ccc(N2CCN(c3ccccn3)CC2)c(S(=O)(=O)N2CCOCC2)c1 [CBK266810] | 91.7% |
| CS(=O)(=O)N1CCC(C(=O)NNC(=S)Nc2cccc3ccccc23)CC1 [CBK266811] | 84.2% |
| S=C(NCCc1ccc(Cl)cc1)NCc1ccco1 [CBK266812] | 83.3% |
| NS(=O)(=O)c1ccc(NC(=O)C2CCCN(S(=O)(=O)c3ccc(Cl)cc3)C2)cc1 (stereo not drawn) [CBK266813] | 91.7% |
| Cc1ccc(C)c(S(=O)(=O)NC(Cc2c[nH]c3ccccc23)C(=O)O)c1 (stereo not drawn) [CBK266816] | 105% |
| O=C(NNC(=S)NCCc1ccccc1)c1ccc(Br)o1 [CBK266818] | 96.3% |
| COc1ccc(C(=O)Nc2ccc3c(c2)nc2n3CCN(Cc3ccccc3)C2)cc1 [CBK266820] | 82.5% |
| COc1cccc(/C=C\c2[nH]c(=O)[nH]c(=O)c2[N+](=O)[O-])c1OCC(=O)O [CBK266822] | 104% |
| O=C(CCSc1ccccc1)Nc1ccc(Br)cc1F [CBK266825] | 101% |
| CN1CCN(C(=S)c2ccc(OCC(=O)Nc3cccc(C(F)(F)F)c3)cc2)CC1 [CBK266826] | 92.2% |
| Cc1cc(=O)oc2cc(NC(=S)NNC(=O)c3ccc(Cl)s3)ccc12 [CBK266828] | 92.3% |
| COC(=O)c1ccccc1NC(=O)Nc1ccc(N2CCOCC2)c2nonc12 [CBK266830] | 90.6% |
| COc1ccc(NC(=O)Nc2nn(Cc3c(F)cccc3Cl)cc2Br)c(OC)c1 [CBK266834] | 83.8% |
| COc1ccc(OC)c(S(=O)(=O)N2CCC(C(=O)O)CC2)c1 [CBK266835] | 83.5% |
| O=C(CC1NCCNC1=O)Nc1ccc2c(c1)OCCO2 (stereo not drawn) [CBK266837] | 99.3% |
| COc1ccccc1N1CCN(CCNC(=O)Nc2cccc(C)c2C)CC1 [CBK266839] | 90.2% |
| CCN(CC)CCN1C(=O)c2oc3cc(C)c(C)cc3c(=O)c2C1c1cc(Br)c(O)c(OC)c1 (stereo not drawn) [CBK266846] | 105% |

| Structure (SMILES) | viability at 28.5 h, 10 µM |
| --- | --- |
| CC(=O)c1cccc(NC(=O)C2CCCN(S(=O)(=O)c3ccc(Cl)cc3)C2)c1 (stereo not drawn) [CBK266847] | 102% |
| CCOc1cc(-c2cc(C(=O)O)c3ccccc3n2)ccc1O [CBK266848] | 103% |
| CCNS(=O)(=O)c1ccc(NC(=O)Nc2cc(C)ccc2OC)cc1 [CBK266850] | 106% |
| O=C(CN1CCOCC1)NCCNc1c(Cl)c(Cl)c(Cl)c(Cl)c1Cl [CBK266851] | 84.7% |
| CCOc1cc(C(=S)N2CCN(C)CC2)ccc1OCC(=O)N1CCOCC1 [CBK266856] | 101% |
| O=C(NCCNC1CCC(c2ccccc2)CC1)c1ccc(F)cc1 (stereo not drawn) [CBK266857] | 88.2% |
| COc1ccccc1-c1nnc(Sc2nc([N+](=O)[O-])nn2C)o1 [CBK266858] | 85.1% |
| Cc1ccc(S(=O)(=O)N2C(=O)CCC2C(=O)O/N=C(\N)c2cccnc2)cc1 (stereo not drawn) [CBK266864] | 111% |
| CCN1CCCC1CNC(=O)C(=O)Nc1ccccc1OC (stereo not drawn) [CBK266865] | 103% |
| Cc1ccc(C(=O)NNC(=S)Nc2ccc(S(N)(=O)=O)cc2)cc1[N+](=O)[O-] [CBK266866] | 95.6% |
| C=CCn1c(SCC(=O)Nc2cc(Cl)ccc2C)nnc1-c1ccccc1O [CBK266867] | 94.5% |
| CCn1c2ccccc2n2c(SCC(=O)O)nnc12 [CBK266869] | 91.4% |
| O=C(NCCNCc1ccco1)c1ccc(F)cc1 [CBK266873G] | 103% |
| Cc1cccc(Cn2cnc(NC(=O)Nc3cccc(Cl)c3C)n2)c1 [CBK266876] | 89.5% |
| COC(=O)c1sc2cc(NC(=S)NNC(=O)c3ccoc3C)ccc2c1Cl [CBK266877] | 83.3% |
| O=S(=O)(c1ccc(Cl)cc1)N1CCN(S(=O)(=O)N2CCOCC2)CC1 [CBK266878] | 92.9% |
| CCN1CCN(C(=O)C2CCN(S(=O)(=O)c3ccc(Br)cc3)CC2)CC1 [CBK266881] | 103% |
| O=C(NNC(=O)c1cc2ccccc2cc1O)Nc1cccc([N+](=O)[O-])c1 [CBK266882] | 101% |
| COc1ccc(N(CC(=O)Nc2c(F)cccc2F)S(=O)(=O)c2ccccc2)cc1 [CBK266883] | 95.2% |
| O=C(Nc1ccc([N+](=O)[O-])cc1)Nc1ccc(N2CCOCC2)c2nonc12 [CBK266885] | 93.1% |
| COC(=O)c1ccccc1NC(=O)NCc1cc(C)n(C)n1 [CBK266887C] | 109% |

| Structure (SMILES) | viability at 28.5 h, 10 µM |
| --- | --- |
| O=c1c(-c2nncn2-c2ccccc2)coc2c(O)c(O)ccc12 [CBK266889] | 102% |
| Cc1ccc2nc(C)cc(C(=O)NNC(=O)Nc3ccc([N+](=O)[O-])cc3)c2c1 [CBK266890] | 98.8% |
| COc1ccc(NC(=S)N2CCN(C/C=C/c3ccccc3)CC2)cc1OC [CBK266891] | 88.7% |
| COC(=O)c1c(NC(=S)Nc2cnccn2)sc2c1CCC(C)C2 (stereo not drawn) [CBK266893] | 94.2% |
| Cc1ccc(C)c(S(=O)(=O)Nc2ccc(O)c(Sc3nnc[nH]3)c2)c1 [CBK266894] | 95.2% |
| S=C(NCc1ccco1)NCc1cn(-c2ccccc2)nc1-c1ccccc1 [CBK266895] | 112% |
| Cc1cccc(NC(=O)C(Cc2ccccc2)C(=O)Nc2cccc(C)c2)c1 [CBK266899] | 91.9% |
| O=C(COc1ccccc1)NC1C(=O)N2C(C(=O)O)=C(Cl)CSC12 (stereo not drawn) [CBK266903] | 92.7% |
| O=C(Cc1ccccc1[N+](=O)[O-])NNC(=S)Nc1ccc(F)c(Cl)c1 [CBK266904] | 101% |
| O=C(O)CCNS(=O)(=O)c1ccc2[nH]c(=O)[nH]c2c1 [CBK266906] | 91% |
| O=C(NNC(=O)C1CCN(S(=O)(=O)c2ccc(Br)cc2)CC1)NC12CC3CC(CC(C3)C1)C2 [CBK266907] | 94.5% |
| Cc1cc(F)ccc1S(=O)(=O)N(C(=O)c1ccncc1)c1ccc(OC(=O)c2ccncc2)cc1 [CBK266909] | 91.1% |
| CN(C)CCCNC(=S)NCc1ccc(Cl)cc1 [CBK266910] | 97.3% |
| CCC(C)c1ccc(OCC(=O)Nc2ccc3[nH]c(=O)[nH]c3c2)cc1 (stereo not drawn) [CBK266911] | 105% |
| S=C(NCCc1ccccc1)NCCn1cc(Cl)cn1 [CBK266912] | 103% |
| COc1ccc(Cl)cc1S(=O)(=O)N1CCN(Cc2ccc3c(c2)OCO3)CC1 [CBK266913] | 98.5% |
| S=C(NCCn1cc(Br)cn1)NCc1ccco1 [CBK266914] | 95.5% |
| O=C(CC(NC1CCCCC1)C(=O)O)Nc1cccc(Cl)c1 (stereo not drawn) [CBK266916] | 98.5% |
| NS(=O)(=O)c1ccc(NC(S)=Nc2ccc(S(=O)(=O)N3CCCC3)cc2)cc1 [CBK266918] | 80.3% |
| COc1ccc(Cl)cc1NC(=S)NNC(=O)c1cc(C)nc2ccccc12 [CBK266920] | 50.5% |
| CC(C)CNC(=S)NNC(=O)CC(C)O (stereo not drawn) [CBK266921] | 93.9% |
